# Assay results: US11597724B2, “Herbicidally active 3-phenylisoxazoline-5-carboxamides of tetrahydro and dihydrofuran carboxylic acids and esters” (Bayer Aktiengesellschaft, priority 2017, dated 2023)
# Experiments:
# Format in all cases: in vivo
# [1] = tested on: Amaranthus retroflexus; test: Pre-emergence herbicidal activity against AMARE; conditions: dosage 80 g/ha; for pest or weed control at 80 g/ha: Amaranthus retroflexus, 504 h
# In short: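 Seeds sown in pots, covered with soil; WP or EC formulations sprayed onto soil surface as aqueous suspension/emulsion with 0.5% additive at 600 l/ha water. Pots kept in greenhouse ~3 weeks, then effect scored visually versus untreated controls as % (100% = plants dead, 0% = like control).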
# [2] = tested on: Alopecurus myosuroides; test: Post-emergence herbicidal activity against ALOMY; conditions: dosage 320 g/ha, rated about 3 weeks after treatment; for pest or weed control at 320 g/ha: Alopecurus myosuroides, 504 h
# In short: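 Greenhouse-grown plants treated at one-leaf stage, 2 to 3 weeks after sowing, with WP or EC formulations sprayed as aqueous suspension/emulsion plus 0.5% additive at 600 l/ha. Activity rated visually about 3 weeks later versus untreated controls (100% = plants dead, 0% = like control).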
# [3] = tested on: Avena fatua; test: Pre-emergence herbicidal activity against AVEFA; conditions: dosage 80 g/ha; for pest or weed control at 80 g/ha: Avena fatua, 504 h, read-out: Pre-emergence herbicidal activity against AVEVA in % (AVEFA)
# Excerpt: 1. Pre-Emergence Herbicidal Action and Crop Plant Compatibility Seeds of monocotyledonous and dicotyledonous weed plants and crop plants are placed in plastic or wood fiber pots and covered with soil. The compounds of the invention, formulated in the form of wettable powders (WP) or as emulsion concentrates (EC), are then applied onto the surface of the covering soil as aqueous suspension or emulsion with addition of 0.5% additive at a water application rate of 600 l/ha (converted). After the treatment, the pots are placed in a greenhouse and kept under good growth conditions for the trial plants. After about 3 weeks, the effect of the preparations is scored visually in comparison with untreated controls as percentages. For example, 100% activity=the plants have died, 0% activity=like control plants. AMARE: Amaranthus retroflexus AVEFA: Avena fatua
# [4] = tested on: Avena fatua; test: Post-emergence herbicidal activity against AVEFA; conditions: dosage 320 g/ha, rated about 3 weeks after treatment; for pest or weed control at 320 g/ha: Avena fatua, 504 h
# In short: (§1)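 Greenhouse pots of sandy loam; plants sprayed at one-leaf stage, 2 to 3 weeks after sowing, with WP or EC formulations in water plus 0.5% additive at 600 l/ha. Activity rated visually after about 3 weeks against untreated controls (100% = plants dead, 0% = like control).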
# [5] = tested on: Pharbitis purpurea; test: Post-emergence herbicidal activity against PHBPU; conditions: dosage 320 g/ha, rated about 3 weeks after treatment; for pest or weed control at 320 g/ha: Ipomoea purpurea, 504 h
# In short: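 Greenhouse-grown plants sprayed post-emergence at the one-leaf stage, 2 to 3 weeks after sowing, with WP or EC formulations plus 0.5% additive at 600 l/ha water. Activity rated visually after about 3 weeks versus untreated controls (100% = plants dead, 0% = like control).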
# [6] = tested on: Amaranthus retroflexus; test: Post-emergence herbicidal activity against AMARE; conditions: dosage 320 g/ha, rated about 3 weeks after treatment; for pest or weed control at 320 g/ha: Amaranthus retroflexus, 504 h
# In short: as §1
# [7] = tested on: Stellaria media; test: Post-emergence herbicidal activity against STEME; conditions: dosage 320 g/ha, rated about 3 weeks after treatment; for pest or weed control at 320 g/ha: Stellaria media, 504 h
# In short: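 Greenhouse plants treated at one-leaf stage, 2–3 weeks after sowing, by spraying WP or EC formulations with 0.5% additive at 600 l/ha water. Visual rating about 3 weeks later versus untreated controls (100% = plants dead, 0% = like controls).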
# [8] = tested on: Stellaria media; test: Pre-emergence herbicidal activity against STEME; conditions: dosage 80 g/ha; for pest or weed control at 80 g/ha: Stellaria media, 504 h
# In short: (§2)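 Weed seeds sown in pots and covered with soil, then WP or EC formulations sprayed onto the soil surface as aqueous suspension/emulsion with 0.5% additive at 600 l/ha water. Kept in greenhouse; visual percent effect versus untreated controls scored after about 3 weeks (100% = plants dead).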
# [9] = tested on: Veronica persica; test: Pre-emergence herbicidal activity against VERPE; conditions: dosage 80 g/ha; for pest or weed control at 80 g/ha: Veronica persica, 504 h
# In short: as §2
SMILES,Pre-emergence herbicidal activity against AMARE in % [1] [%],Post-emergence herbicidal activity against ALOMY in % [2] [%],Pre-emergence herbicidal activity against AVEVA in % (AVEFA) [3] [%],Post-emergence herbicidal activity against AVEFA in % [4] [%],Post-emergence herbicidal activity against PHBPU in % [5] [%],Post-emergence herbicidal activity against AMARE in % [6] [%],Post-emergence herbicidal activity against STEME in % [7] [%],Pre-emergence herbicidal activity against STEME in % [8] [%],Pre-emergence herbicidal activity against VERPE in % [9] [%],pest or weed control at 80 g/ha [1] [%],pest or weed control at 320 g/ha [2] [%],pest or weed control at 80 g/ha [3] [%],pest or weed control at 320 g/ha [4] [%],pest or weed control at 320 g/ha [5] [%],pest or weed control at 320 g/ha [6] [%],pest or weed control at 320 g/ha [7] [%],pest or weed control at 80 g/ha [8] [%],pest or weed control at 80 g/ha [9] [%]
CC(C)(C)OC(=O)C1CC(NC(=O)C2(C)CC(c3cc(F)cc(F)c3)=NO2)CO1 (mixture of isomers) [I-42],100,100,90,100,90,80,90,100,90,–,–,–,–,–,–,–,–,–
CCOC(=O)C1CC(NC(=O)C2(C)CC(c3cc(F)cc(F)c3)=NO2)CO1 (mixture of isomers) [I-43],90,100,100,100,90,80,100,100,90,–,–,–,–,–,–,–,–,–
CC1(C(=O)NC2COC(C(=O)OCc3ccccc3)C2)CC(c2cc(F)cc(F)c2)=NO1 (mixture of isomers) [I-45],100,100,100,100,90,80,90,100,80,–,–,–,–,–,–,–,–,–
COC(=O)C1CC(NC(=O)C2(C)CC(c3cc(F)cc(F)c3)=NO2)CO1 (mixture of isomers) [I-48],100,90,100,80,80,80,90,100,100,–,–,–,–,–,–,–,–,–
"C=CC1(C(=O)N[C@H]2CO[C@@H](C(=O)O)C2)CC(c2cc(F)cc(F)c2)=NO1 (relative stereo) [I-21, cis-4-[[3-(3,5-difluorophenyl)-5-vinyl-4H-isoxazole-5-carbonyl]amino]tetrahydrofuran-2-carboxylic acid]",–,–,–,–,–,–,–,–,–,100,90,90,90,80,100,80,100,100
"C=C[C@]1(C(=O)N[C@H]2CO[C@@H](C(=O)OC)C2)CC(c2cc(F)cc(F)c2)=NO1 (single isomer, unassigned) [I-11]",100,–,100,–,–,–,–,100,100,–,90,–,100,90,90,90,–,–
"C=C[C@]1(C(=O)N[C@H]2CO[C@@H](C(=O)OC)C2)CC(c2cc(F)cc(F)c2)=NO1 (single isomer, unassigned) [I-12]",–,90,–,100,90,90,90,–,–,100,–,100,–,–,–,–,100,100
"C=C[C@]1(C(=O)NC2COCC2C(=O)OC)CC(c2cc(F)cc(F)c2)=NO1 (stereo partly drawn) [I-26, methyl 4-[[(5S)-3-(3,5-difluorophenyl)-5-vinyl-4H-isoxazole-5-carbonyl]amino]tetrahydrofuran-3-carboxylate]",–,–,–,–,–,–,–,–,–,100,90,90,90,80,80,90,100,100
"COC(=O)C1COCC1NC(=O)[C@@]1(C)CC(c2cc(F)cc(F)c2)=NO1 (stereo partly drawn) [I-28, methyl 4-[[(5R)-3-(3,5-difluorophenyl)-5-methyl-4H-isoxazole-5-carbonyl]amino]tetrahydrofuran-3-carboxylate]",–,–,–,–,–,–,–,–,–,90,90,100,100,80,80,80,100,90
CC(C)OC(=O)C1CC(NC(=O)C2(C)CC(c3cc(F)cc(F)c3)=NO2)CO1 (stereo not drawn) [I-44],90,100,90,100,90,80,90,90,80,–,–,–,–,–,–,–,–,–
"COC(=O)C1=C[C@@H](NC(=O)C2(C)CC(c3cccc(F)c3)=NO2)CO1 (stereo partly drawn) [I-46, methyl (3R)-3-[[3-(3-fluorophenyl)-5-methyl-4H-isoxazole-5-carbonyl]amino]-2,3-dihydrofuran-5-carboxylate]",–,–,–,–,–,–,–,–,–,90,100,80,100,90,80,90,100,80
